# Tests used:
# [1] = tested on: BxPC-3 human pancreatic cancer xenografts; assay: In vivo antitumor activity in BxPC-3 xenografts; design: species or system mice; conditions: 30 mg/kg i.v., two weekly rounds of q1d×5
# Description: A study was carried out to investigate anticancer activity of compound 091 in human BxPC-3 pancreatic cancer xenografts. The compound was evaluated against subcutaneous-implanted BxPC-3 human pancreatic cancer xenografts in female athymic mice.
# The human pancreatic cancer cell line, BxPC-3-T1 (no mutations on B-RAF and Ras genes) was transplanted subcutaneously into female nude mice. The experiment consisted of 8 mice per group on the first day of treatment. The compound was administered intravenously for two weekly rounds of five daily injections (q1d×5) with a two-day rest period between the rounds. The compound was administered in a vehicle volume of 0.1 mL/10 g of body weight.
# (§1) The general health of the mice was monitored daily. Tumor dimensions and body weights were recorded twice a week starting on the first day of treatment. Tumor weights were calculated using the equation (l×w^2)/2, where 1 and w refer to the larger and smaller dimensions collected at each measurement. When the mean tumor volume reached 130 mm^3, vehicle (cremophor:ethanol:5% glucose; 1:1:8) or the test compound (15, 30 mg/kg) was administered to mice (8/group).
# [2] = tested on: Cell lines which carried a B-RAF V600E mutation; assay: Cell growth inhibition in solid cancer cell lines (CellTiter-Glo or methylene blue); format: cell-based; conditions: 96 hours, B-RAF V600E mutated cell lines very sensitive
# Description: Compounds 091 and 106, were extensively tested in solid cancer cell lines (shown in FIG. 3 for 18 cell lines for compound 091 and 20 cell lines for compound 106). […] Cell growth was assessed using a CellTiter-Glo® Luminescent Cell Viability Assay (Promega) or a methylene blue assay.
# [3] = tested on: PANC-1 pancreatic cancer cells; assay: PANC-1 cell growth, alone or in combination with SN-38 (CellTiter-Glo)
# Description: To determine whether compounds 091 or 106 in combination with SN-38 would enhance the anticancer activity of chemotherapy due to MEKK1 inhibition, PANC-1 human pancreatic cancer cells were examined.
# Antiproliferative effects of SN-38 were evaluated in PANC-1 pancreatic cancer cells in combination with compound 091 or 106. Cultured human cancer cells were placed into 96-well plates and grown in the absence or continuous presence of 0.03-1000 nM SN-38 for 96 h with or without 1 μM of test compound. Cell growth was assessed using CellTiter-Glo® Luminescent Cell Viability Assay (Promega). IC50 values were determined as the concentration of a substance which inhibits cell growth by 50% compared to untreated cell populations.
# [4] = target: MEK1 (Homo sapiens, UniProt Q02750); assay: Biochemical MEK1 assay (ELISA, ERK2-coated plate)
# Description: A biochemical MEK1 assay was carried out to investigate whether compounds of formula (I) or (II), e.g., compounds 029, 091, 106 and 114 are MEK1 inhibitors. Biochemical MEK1 inhibition of the compounds was assessed using an ELISA assay. All assays were performed in a 96 well format. A plate coated with ERK2, a substrate protein for MEK1 was used for biochemical MEK1 assay. In a final volume of 40 μL, MEK1 (25 ng) was incubated with 50 mmol/L HEPES, 20 mmol/L MgCl2, 4 mmol/L MnCl2, and 0.5 mmol/L Na3VO4 in the absence or presence of the test compounds. The reaction was initiated by the addition of 1 μmol/L ATP. After incubation for 40 minutes at 30° C., the reaction mixture was discarded and the plate was then washed 4 times with 0.05% Tween20/PBS. Each well was incubated with 100 μL of 1:4000 diluted phospho-ERK1/2 monoclonal antibody (Cell Signaling, MA) for 1.5 hours at room temperature. The antibody was then discarded and the plate was washed 6 times with 0.05% Tween20/PBS. Finally, 100 μL of 1:2000 diluted of HRP conjugated anti-mouse IgG antibody (Cell Signaling, MA) was added. After incubation for 90 minutes, this antibody was discarded and the plate was washed 8 times with 0.05% Tween20/PBS. Phosphorylated ERK2 was then visualized by peroxidase reaction, and read at 450 nm. FIG. 2A is a table depicting results from MEK1 assays.
# [5] = tested on: LOX human melanoma xenografts; assay: In vivo antitumor activity in LOX xenografts; design: species or system mice
# Description: A study was carried out to investigate anticancer activity of compounds 091 and 106 in human LOX BRAF mutated melanoma xenografts. The compounds were evaluated against subcutaneous-implanted LOX human melanoma xenografts in female athymic mice.
# (§2) The human melanoma cell line, LOX which has B-RAF (V600E) mutation was transplanted subcutaneously into female nude mice. The experiment consisted of 8 mice per group on the first day of treatment. Compounds were independently administered intravenously for two weekly rounds of five daily injections (q1d×5) with a two-day rest period between the rounds. Compounds were administered in a vehicle volume of 0.1 mL/10 g of body weight.
# The general health of the mice was monitored daily. Tumor dimensions and body weights were recorded twice a week starting on the first day of treatment. Tumor weights were calculated using the equation (l×w^2)/2, where 1 and w refer to the larger and smaller dimensions collected at each measurement. When the mean tumor volume reached 128 mm^3, vehicle (cremophor:ethanol:5% glucose; 1:1:8) or one of the test compounds (10, 20, 30, or 40 mg/kg) was administered to mice (8/group).
# [6] = Blood brain barrier penetration; conditions: in vivo
# [7] = tested on: Colo205 human colon cancer xenografts; assay: In vivo antitumor activity in Colo205 xenografts; design: species or system mice; conditions: 30 mg/kg i.v., two weekly rounds of q1d×5
# Description: A study was carried out to investigate anticancer activity of compounds 091 and 106 in human Colo205 BRAF mutated colon cancer xenografts. The compounds were evaluated against subcutaneous-implanted Colo205 human colon cancer xenografts in female athymic mice.
# as §2, with “colon cancer” for “melanoma”, “Colo205” for “LOX”, “6” for “8”, “The compound was” for “Compounds were independently”, “Compound 091 was” for “Compounds were”
# as §1, with “140” for “130”, “(30” for “(15, 30”, “(6/group).” for “(8/group).”
# Chain of MEK1 (Q02750 whole entry): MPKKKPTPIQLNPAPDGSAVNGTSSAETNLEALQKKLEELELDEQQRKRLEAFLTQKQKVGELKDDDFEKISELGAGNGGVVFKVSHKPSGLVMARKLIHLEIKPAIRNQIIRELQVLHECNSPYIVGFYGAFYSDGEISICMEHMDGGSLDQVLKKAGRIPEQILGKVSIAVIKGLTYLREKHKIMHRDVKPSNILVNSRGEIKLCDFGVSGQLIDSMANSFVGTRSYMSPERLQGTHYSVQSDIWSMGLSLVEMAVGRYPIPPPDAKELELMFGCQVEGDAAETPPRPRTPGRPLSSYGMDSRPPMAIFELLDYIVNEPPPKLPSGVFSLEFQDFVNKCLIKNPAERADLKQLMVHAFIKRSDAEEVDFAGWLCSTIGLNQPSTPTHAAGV
compound,measurement,setting,value
CNc1cc(O)c2c(c1)/C=C/C[C@H](O)[C@H](O)C(=O)/C=C\[C@@H](C)[C@H](C)OC2=O [Compound 091],tumor regression,[1],50%
same,"cell growth inhibition, concentration range of sensitivity",[2],low-nM or sub-μM
same,"effect on PANC-1 cancer cell growth, compound alone","[3]; 1 μM alone, separate experiments (data not shown)",did not affect
same,effect on cytotoxicity of SN-38,[3]; 1 μM test compound in combination with SN-38,enhanced
same,MEK1 inhibitory activity,[4]; 1 μmol/L ATP,low nM activity
same,"MEK1 inhibitory activity, dependence on ATP",[4]; at a low concentration of ATP,more potent
same,tumor regression,"[5]; 10 mg/kg i.v., for the first three weeks",100%
same,tumor regression,"[5]; 20 mg/kg i.v., in all mice",100%
same,tumor regression,"[5]; 30 mg/kg i.v., in all mice",100%
same,tumor regression,"[5]; 40 mg/kg i.v., in all mice",100%
same,tumor status of mice at the end of the study,[5]; mice given 091,tumor free
same,brain/plasma AUC0-t ratio,[6],3.170
same,tumor regression,[7],~70%

# Source: patent publication US8937056B2, “Multikinase inhibitors for use in the treatment of cancer” (Eisai R&D Management Co., Ltd., priority 2007, dated 2015)
